{"source": "patent US20210379197A1", "about": "“DUAL-TARGETING LIPID-POLYMER HYBRID NANOPARTICLES” (IUCF-HYU (INDUSTRY-UNIVERSITY COOPERATION FOUNDATION …, priority 2020, published 2021)", "key": {"HO1 [1]": {"tested_on": "HO1", "assay": "Daunorubicin-responsive HO1 upregulation, U937 (Western blot)", "assay_type": "cell-based, human", "conditions": "U937, various concentrations of DNR, 24 h (FIG. 9a)", "procedure": "(§1) THP-1 and U937 cells (4×10^5 cells mL^−1) were seeded and cultured in complete medium with various concentrations of DNR for 24 h. The cells were lysed using RIPA buffer and total protein was used for immunodetection by using anti-human HO1 and kactin antibodies (Cell Signaling Technology, Danvers, Mass., USA)."}, "HO1 [2]": {"tested_on": "HO1", "assay": "Daunorubicin-responsive HO1 upregulation, THP-1 (Western blot)", "assay_type": "cell-based, human", "conditions": "THP-1, various concentrations of DNR, 24 h (FIG. 9a)", "procedure": "as §1"}}}
{"smiles": "COc1cccc2c1C(=O)c1c(O)c3c(c(O)c1C2=O)C[C@@](O)(C(C)=O)C[C@@H]3O[C@H]1C[C@H](N)[C@H](O)[C@H](C)O1", "note": "[DNR, daunorubicin]", "values": [{"measurement": "HO1 expression", "setting": "HO1 [1]", "result": "overexpressed"}, {"measurement": "HO1 expression", "setting": "HO1 [2]", "result": "overexpressed"}]}
